Entries after “also recorded” stand apart in the source; their conditions may differ.
Tests used:
[1] = system: BCL-2; conditions: ref Souers et al., 2013; cited from earlier work
[2] = system: BAX; assay: BAX/BCL-2 co-immunoprecipitation in HeLa cells; assay type: binding; conditions: HeLa cells co-expressing full-length BAX and BCL-2; BCL-2 antibody IP

Compound | BCL-2 inhibitory activity [1] | co-immunoprecipitation of BAX with BCL-2 [2]
CC1(C)CCC(CN2CCN(c3ccc(C(=O)NS(=O)(=O)c4ccc(NCC5CCOCC5)c([N+](=O)[O-])c4)c(Oc4cnc5[nH]ccc5c4)c3)CC2)=C(c2ccc(Cl)cc2)C1 [ABT-199] | selective BCL-2 inhibitor | 
BCL-2 L23A: L23A point mutant of BCL-2 protein |  | impaired by L23A mutagenesis of the BCL-2 BH4 domain; also recorded: less effective at co-immunoprecipitating BAX relative to wild-type BCL-2

Reference: paper PMC4384643 (Molecular cell, 2015)
